Test [1] relates to HepG2. The test is described as follows: Cell cycle arrest in human HepG2 cells assessed as accumulation at G0/G1 phase at 10 uM by FACS analysis relative to control. Format: functional.
For test [2], the system named is HepG2. Kind of test: Cell cycle arrest in human HepG2 cells assessed as accumulation at sub-G1 phase at 1 uM by FACS analysis relative to control. Format: functional. Background: In flow cytometry, cells or beads pass a laser one at a time.
The test system of test [3] is HepG2. Kind of test: Cell cycle arrest in human HepG2 cells assessed as accumulation at G2/M phase at 10 uM by FACS analysis relative to control. Type of test: functional.
Test [4] has as its system HepG2. Kind of test: Cell cycle arrest in human HepG2 cells assessed as accumulation at S phase at 10 uM by FACS analysis relative to control. Type of test: functional.
Test [5] addresses Serine/threonine-protein kinase pim-1 (Homo sapiens, UniProt P11309).
Description: Inhibition of PIM1 (unknown origin)
Test [6] relates to HepG2. The test is described as follows: Cell cycle arrest in human HepG2 cells assessed as accumulation at G0/G1 phase at 1 uM by FACS analysis relative to control. Type of test: functional.
Test [7] concerns HepG2. Kind of test: Cell cycle arrest in human HepG2 cells assessed as accumulation at G2/M phase at 1 uM by FACS analysis relative to control. Type of test: functional.
Test [8] relates to HepG2. The test is described as follows: Cell cycle arrest in human HepG2 cells assessed as accumulation at S phase at 1 uM by FACS analysis relative to control. Format: functional.
In test [9] the target is Serine/threonine-protein kinase pim-3 (Homo sapiens, UniProt Q86V86). Kind of test: Inhibition of PIM3 (unknown origin).
Test [10] deals with HepG2. Kind of test: Cell cycle arrest in human HepG2 cells assessed as accumulation at sub-G1 phase at 10 uM by FACS analysis relative to control. Format: functional.
In test [11] the target is Serine/threonine-protein kinase pim-2 (Homo sapiens, UniProt Q9P1W9). The test is described as follows: Inhibition of PIM2 (unknown origin).
The test system of test [12] is MV4-11. Kind of test: Growth inhibition of human MV4-11 cells. Format: functional, cell-based.

Data on two compounds can be found in ChEMBL document CHEMBL4118246, “Discovery and evaluation of 3,5-disubstituted indole derivatives as Pim kinase inhibitors” (Bioorg Med Chem Lett, 2018).

Sequence of Serine/threonine-protein kinase pim-2 (Q9P1W9 whole entry): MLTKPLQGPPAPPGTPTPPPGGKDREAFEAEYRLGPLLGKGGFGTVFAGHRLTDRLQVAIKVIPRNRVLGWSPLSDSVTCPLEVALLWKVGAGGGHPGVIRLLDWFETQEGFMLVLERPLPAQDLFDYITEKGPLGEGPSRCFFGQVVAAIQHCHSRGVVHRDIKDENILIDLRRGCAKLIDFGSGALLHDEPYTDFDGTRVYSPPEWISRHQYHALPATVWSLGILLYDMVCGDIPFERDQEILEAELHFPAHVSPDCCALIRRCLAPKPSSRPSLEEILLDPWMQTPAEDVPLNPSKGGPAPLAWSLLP
Sequence of Serine/threonine-protein kinase pim-1 (P11309 whole entry): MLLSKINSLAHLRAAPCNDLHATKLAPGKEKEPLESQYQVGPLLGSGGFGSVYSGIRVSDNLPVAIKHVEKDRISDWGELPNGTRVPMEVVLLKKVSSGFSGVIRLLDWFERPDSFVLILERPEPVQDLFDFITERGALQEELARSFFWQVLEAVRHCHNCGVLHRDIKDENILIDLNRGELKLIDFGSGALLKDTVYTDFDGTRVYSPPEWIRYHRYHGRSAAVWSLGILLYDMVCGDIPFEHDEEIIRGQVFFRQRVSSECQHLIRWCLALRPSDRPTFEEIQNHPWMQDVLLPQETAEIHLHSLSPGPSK

Broadly, the IC50 is the concentration at which inhibition is half-maximal. Low values mean greater potency, high ones weaker potency. In the case of `CN(C)CCNc1cncc(-c2ccc3[nH]cc(-c4ccc(S(N)(=O)=O)cc4)c3c2)n1`, the Activity in test [1] is recorded as 58%; in [2], 2.4%; in test [3] it was 14.6%; in test [4], 19.8%; in [6], 55.5%; in [7], 15.3%. The Activity is listed as 21.3% in test [8] and 2.4% in test [10]. Moreover, the half-inhibitory concentration (IC50) is 9 nM in test [5], 26 nM in [9], 700 nM in test [11] and 6800 nM in [12].

In the case of `CN(C)CCNc1cncc(-c2ccc3[nH]cc(-c4cccc(F)c4F)c3c2)n1`, the Activity in test [1] came out at 22.6%; in test [2] it was 2.8%; in test [3] it was 0%; in test [4], 3.2%; in test [6] it was 56%; in test [7], 16.2%. Moreover, the Activity in test [8] amounted to 19.2%; in [10] it was 74.2%. In addition, the IC50 in test [5] stood at 9 nM; in [9], 22 nM; in test [11], 645 nM; in [12], 2600 nM.
